The values that follow come from patent US8669232B2, “Flavonol compounds, a bioactive extract/fraction from Ulmus wallichiana and its compounds for prevention for treatment of osteo-health related disorders” (Council of Scientific & Industrial Research, priority 2008, dated 2014).

Experiment [1] has as its system calvarial osteoblasts. The experiment can be described thus: In vitro mineralization of calvarial osteoblasts (alizarin red-S, von kossa). In kind it is cell-based, neonatal Sprague-Dawley rats. To be noted: for Von kossa staining (mineralized nodules) compared with controls (vehicle): 21 days culture. How it is done:
(§1) Neonatal rat calvarial cell cultures are prepared as described previously (Chattopadhyay et al., Endocrinology 145:3451-62, 2004) using slight modification. Briefly, for calvarial osteoblast cultures, frontal and parietal bones from neonatal Sprague-Dawley rats (1-3 day old) were digested in 0.1% collagenase/0.1% dispase in α-MEM to obtain 5 sequential digests. The second through fifth digests are combined and grown to confluence at 37° C. and 5% CO2 in air in α-MEM, supplemented with 10% fetal bovine serum (FBS), 2 mM glutamine, 100 U/ml penicillin-streptomycin, non-essential amino acid solution and sodium pyruvate.
Ability of cells to produce mineralized matrix is important with regard to development of materials for bone regeneration. Mineralization of extracellular matrix by osteoblasts was determined using alizarin red-S (AR-S) assay combined with cetylpyridinium chloride (CPC) extraction. (Stanford et al, J. Biol. Chem. 270:9420-9428; 1995.) Alizarin red is a dye that binds selectively to nascent calcium salts and is widely used for calcium mineral histochemistry. Cells were seeded onto a six well plate containing 10000 cells/well in culture medium supplemented with 10 mM β-glycerophosphate and 50 μg/ml ascorbic acid with test compounds K012, K058, K068 and K0100 at 1 nM and 100 nM concentration. Treatment was given for 21 days and after completion of the treatment samples were rinsed with PBS followed by fixation (4% HCHO for 20 min). Photomicrographs of the stained wells were taken. Subsequently, alizarin red-S stain was extracted using 10% (w/v) cetylpyridinium chloride (CPC) in […] sodium phosphate, pH 7.0, for 15 min at room temperature, and the resulting solutions were read on a Microplate reader with a test wavelength of 540 nm against a reference wavelength of 620 nm. Mineralization nodules were also seen by Von kossa staining procedure (A. M. Chou et al. Materials Science and Engineering C 20 (2002) 77-83.) After 21 days culture, cells in tissue culture wells were washed with PBS and immersed in 5% (w/v) silver nitrate solution for 45 min. After rinsing with distilled water, they were fixed in 5% (w/v) sodium bicarbonate formalin for 8 min. Finally, they were immersed in 5% (w/v) sodium thiosulphate solution for 5 min and washed thoroughly with water for 15 min and photomicrographs were taken.

Experiment [2] has as its system calvarial osteoblasts. The experiment is described as follows: Alkaline phosphatase activity assay in calvarial osteoblasts. In kind it is cell-based, neonatal Sprague-Dawley rats. Here is the method:
as §1
For alkaline phosphatase (ALP) assay, osteoblasts were plated in 96-well (2000 cells/well) plates in regular growth medium. Twenty-four hours later, when the cells formed a confluent monolayer, medium was replaced with α-MEM medium supplemented with 10% FBS, 10 mM β-glycerophosphate and 50 μg/ml ascorbic acid. Treatment was given with varying concentration of the test compound K012, K058, K068 and K100 at 1 nM and 100 nM concentration. Forty-eight hours after induction, ALP activity of the osteoblasts was determined as described by Akiyama et al (Exp Cell Res 235:362-369, 1997) with slight modifications. Briefly, cells were washed once with PBS and ALP activity was measured by adding ALP buffer (1 M diethanolamine, 0.5 mM MgCl2, 1 mg/ml PNPP, pH 9.0), incubating in 37° C., and absorbance (405 nm) was measured using a microplate spectrophotometer. Statistical significance was determined by paired two-tailed Student's t-tests.

The next experiment has as its system Bone marrow cells (BMCs). The experiment can be described thus: In vitro mineralization from mouse bone marrow. In kind it is cell-based, balb/c mice. To be noted: 1 nM and 100 nM, 21 days. From the text: Adult balb/c mice were used in this study. Bone marrow cells (BMCs) were harvested from the femurs and tibias of the animals, as described elsewhere (Maniatopoulos et al. Cell Tissue Res 1988:254:317-30.; Ishaug et al., J Biomed Mater Res 1997; 36:17-28.). Briefly, bones were aseptically excised from the hind limbs of the mice following ether euthanasia. The soft tissue was removed, and the proximal end of the femur and distal end of the tibia were clipped off using sterile scissors, a hole was created in the knee joint end of each bone with an needle, and the marrow was flushed from the shaft with control medium (CM) which consisted of α-MEM supplemented with 10% fetal calf serum, 100 U/ml penicillin, 100 U/ml streptomycin (Sigma, Chemical Co., St. Louis, Mo., USA). The cells were suspended in this medium, and the cell suspensions from all bones were combined in a centrifuge tube. The suspension was spun down at 800 rpm for 5 min. Cells were counted by using a haemocytometer. The supernatant was aspirated, and the pellet was re-suspended in fresh CM and then seeded into 12-well plates. 200000 cells/well were cultured in 12-well plates and in a humidified atmosphere, with 5% CO2, at 37° C. in the same medium supplemented with 10 mM-β-glycerophosphate, 50 μg/ml L-ascorbic acid and 10^−8M dexamethasone with different concentration of the test compound. This medium was replaced every other day (John et al. Trends. Biomater. Artif. Organs 2002:16(1):28-33.; Connolly. Clin Orthop 1995:313: 8-18.; Gebhart and Lane. Acta Orthop Belg 1991:57(2):130-43.; Gurpinar et al. J Biomater Appl 2003; 18(1):25-33; Lan and Wang, Blood Substitutes. Biotechnol 2003; 31(1):59-68.). Treatments K012, K058, K068 and K0100 at 1 nM and 100 nM concentration were given for 21 days and after completion of the treatment samples were rinsed with PBS followed by fixation (4% HCHO for […]). Samples were then rinsed with nanopure water and stained for 10 min with 40 mM AR-S, pH 4.2, at room temperature. Photomicrographs of the stained wells were taken. Subsequently, alizarin red-S stain was extracted using 10% (w/v) CPC in […] sodium phosphate, pH 7.0, for […] at room temperature, and the resulting solutions were read on a Microplate reader with a test wavelength of 540 nm against a reference wavelength of 620 nm.

Experiment [3] deals with 3T3-L1 preadipocyte cells. The experiment can be described thus: In vitro adipogenesis (oil red-O). In kind it is cell-based, murine. To be noted: for adipocyte differentiation (oil red-O): 1 μM, 100 nM and 1 nm, 8 days. How it is done:
3T3-L1 preadipocyte cells were cultured to confluency. Two days after the cells reached confluency was considered as day 0. At day 0, cells were treated with the induction media [10% calf serum/DMEM containing 1 μg/ml insulin, 1 μM dexamethasone and 500 μM isobutylmethylxanthine (IBMX). Two days after induction medium treatment (day 2), the cells were treated with insulin [10% calf serum/DMEM containing 1 μg/ml insulin. Full differentiation was usually achieved after 8 days from day 0. To test the effect of the test compound on the differentiation of 3T3-L1 preadipocytes to adipocytes, the test compounds K068 and K100 at 1 μM, 100 nM and 1 nm concentrations were used in different concentrations throughout differentiation (for 8 days starting from day 0). For assessment of adipogenesis the differentiated cells were fixed in 4% paraformaldehyde w/v for 20 min, washed with PBS and stained with 0.34% Oil Red 0 in 60% isopropanol for 15 minutes. Then it was washed with PBS thrice and stain was extracted with 80% isopropanol by keeping it at room temperature for 30 minutes on an orbital shaker. OD of the extracted dye was taken at 520 nm.

The next experiment has as its system 3T3-L1 preadipocytes. The experiment is described as follows: Semi-quantitative RT-PCR of adipogenic genes. In kind it is cell-based, murine. Conditions: 10^−7 & 10^−9M, 8 d. Here is the method:
RT-PCR was performed for assessing the expression of PPAR-γ (peroxisome proliferator-activated receptor) and adiponectin. The house keeping gene GAPDH was used as the internal control in this study. 3T3-L1 preadipocytes were cultured under differentiation condition to form adipocytes in the presence of K068 and K100 at 10^−6, 10^−7 and 10^−9 M concentrations for 8 days. Following the culture, cellular RNA was extracted and RT-PCR performed using a kit (Fermentas) according to manufacturer's instructions.

The next experiment has as its system Ishikawa cells. The experiment is described as follows: In vitro estrogenicity / anti-estrogenicity (ALP induction). In kind it is cell-based, human. Conditions: 10^−11 to 10^−6 M, 72 h. How it is done: The expression of alkaline phosphatase is induced in Ishikawa cells in response to estrogen or estrogen like substances (Littlefield et al, Endocrinology. 1990 December; 127(6):2757-62.). Ishikawa cells were plated in 96-well flat bottomed microtiter plates at a density of 5000 cells/well and cultured in phenol red free DMEM containing 10% charcoal treated FCS. After 24 h of plating, cells were serum-starved for 12 h. Thereafter, for testing estrogenicity of compounds, the cells were treated with different concentrations (10^−6 to 10^−11 M) of pure compounds K058 and K012. Same concentrations of Raloxifene were also used for comparison. Estrogen concentration of 10^−8 M was used as a positive control. Compound treatments were performed for 72 h at 37° C. in CO2 incubator. Experiments were repeated 4 times. For the anti-estrogenicity studies, the compounds K012 and K058 at 10^−6 to 10^−11 M were added with 10^−8 M estrogen. After 72 h of incubation, the media was removed and the plates were washed twice with PBS and dried by tapping, gently. Freeze fracture of cells was achieved by placing the plates at −70° C. for 15, min followed by bringing to room temperature. The plates were then placed on ice and 50 μl of ice cold diethanolamine solution (5 mM P-nitrophenyl phosphate (PNP) and 0.25 mM MgCl2 in 1 M diethanolamine) was added to each well. The plates were then placed at 37° C. for 30 minutes for color (yellow) development is a function of ALP activity. Absorbance was measured at 405 nm.

`O=C1CC(c2ccc(O)cc2)Oc2cc(O)c(C3O[C@H](CO)[C@@H](O)[C@H](O)[C@H]3O)c(O)c21` (some centres unmarked) [K068, 6-Glucopyranosyl-4′,5,7-trihydroxyflavanone]: in the experiment with calvarial osteoblasts [1], the “osteoblast mineralization (summary of in vitro effects)” value is given as “promoted” and the “Von kossa staining (mineralized nodules) compared with controls (vehicle)” value is “increased”. In the experiment with calvarial osteoblasts [2], the “osteoblast differentiation (summary of in vitro effects)” value is “promoted”. Also, the “mineralization of bone marrow osteoblasts (alizarin red staining)” value in the experiment on Bone marrow cells (BMCs) is given as “stimulated”. For the same compound, in experiment [3], the “anti-adipogenic activity in 3T3 L1 cell line (summary of in vitro effects)” value is “have anti-adipogenic activity” and the “adipocyte differentiation (oil red-O)” value is “significantly inhibited”. For the same compound, in the experiment on 3T3-L1 preadipocytes, the “mRNA levels of PPAR-γ” value is “decreased” and the “mRNA levels of adiponectin” value is given as “decreased”.
As for `O=C1c2c(cc(O)c([C@@H]3OC(CO)[C@@H](O)[C@H](O)C3O)c2O)O[C@@H](c2ccc(O)cc2)[C@@H]1O` (stereo partly drawn) [K100, (2S,3S)-(+)-4′,5,7-trihydroxydihydroflavonol-6-C-β-D-glucopyranoside], in the experiment on calvarial osteoblasts [1], the “osteoblast mineralization (summary of in vitro effects)” value was “promoted” and the “Von kossa staining (mineralized nodules) compared with controls (vehicle)” value is “increased”. In the experiment with calvarial osteoblasts [2], the “osteoblast differentiation (summary of in vitro effects)” value was “promoted”. In the experiment on Bone marrow cells (BMCs), the “mineralization of bone marrow osteoblasts (alizarin red staining)” value was “stimulated”. In experiment [3], the “anti-adipogenic activity in 3T3 L1 cell line (summary of in vitro effects)” value is reported as “have anti-adipogenic activity” and the “adipocyte differentiation (oil red-O)” value was “significantly inhibited”. Besides, in the experiment with 3T3-L1 preadipocytes, the “mRNA levels of PPAR-γ” value is given as “decreased” and the “mRNA levels of adiponectin” value is “decreased”.
For the compound `O=C(c1ccc(OCCN2CCCCC2)cc1)c1c(-c2ccc(O)cc2)sc2cc(O)ccc12` [raloxifene, reference compound], in the experiment with Ishikawa cells, the “ALP levels (estrogenicity)” value was “no response”.
